{"source": "patent US9951043B2", "about": "“Therapeutic compounds” (Gilead Sciences, Inc., priority 2013, dated 2018)", "key": {"[1]": {"test": "Test B: Cytotoxicity Assay", "type": "cell-based", "details": "human; uninfected MT-4 cells, same protocol as Test A, 5 days", "description": "(§1) MT-4 cells were next mixed with HIV-IIIb at an m.o.i of 0.003 for 1 hour, after which time 35 μL of virus/cell mixture (2000 cells) was immediately added to each well containing 40 μL of diluted compound. The plates were then incubated at 37° C. for 5 days. […] Cell lysis was carried out by incubating at room temperature for 10 min and then chemiluminescence was read.\n(§2) Test B: Cytotoxicity Assay\n(§3) Compound cytotoxicity and the corresponding CC50 values was determined using the same protocol as described in the antiviral assay (Test A) except that uninfected cells were used."}, "HIV-IIIb": {"test_system": "HIV-IIIb", "test": "Test A: Antiviral Assay in MT4 Cells", "type": "cell-based, HIV-1", "details": "MT-4 cells infected with HIV-IIIb, 5 days, calculated from the dose response curve, values above 100 normalized to 100%; for inhibition at 0.2 µM / inhibition at 2 µM: Human immunodeficiency virus 1, IIIB, MT4, 120 h; for inhibition at 0.2 µM: read-out: % inhibition at 0.2 μM (percent inhibition of virus-induced cell killing), 0.2 μM drug concentration; for inhibition at 2 µM: read-out: % inhibition at 2 μM (percent inhibition of virus-induced cell killing), 2 μM drug concentration; for % inhibition at 0.2 μM (percent inhibition of virus-induced cell killing): 0.2 μM drug concentration; for % inhibition at 2 μM (percent inhibition of virus-induced cell killing): 2 μM drug concentration", "description": "Test A: Antiviral Assay in MT4 Cells\nas §1\nThe data above represent an average over time of each assay for each compound. […] Thus, the data reported in the tables include the data reported in the priority document, as well as data from assays run in the intervening period."}, "uninfected MT-4 cells": {"test_system": "uninfected MT-4 cells", "test": "Test B: Cytotoxicity Assay", "type": "cell-based", "description": "as §1, §2, §3"}}}
{"smiles": "CCC(O)C#Cc1ccc(-c2ccc(Cl)c3c(NS(C)(=O)=O)nn(C)c23)c([C@H](Cc2cc(F)cc(F)c2)NC(=O)Cn2nc(C(F)(F)F)c3c2C(F)(F)[C@@H]2C[C@H]32)n1", "note": "(stereo partly drawn) [Compound 145, N-((1S)-1-(3-(4-chloro-1-methyl-3-(methylsulfonamido)-1H-indazol-7-yl)-6-(3-hydroxypent-1-yn-1-yl)pyridin-2-yl)-2-(3,5-difluorophenyl)ethyl)-2-((3bS,4aR)-5,5-difluoro-3-(trifluoromethyl)-3b,4,4a,5-tetrahydro-1H-cyclopropa[3,4]cyclopenta[1,2-c]pyrazol-1-yl)acetamide]", "values": [{"measurement": "CC50 at 5 days", "setting": "[1]", "result": 8.69, "unit": "µM"}, {"measurement": "inhibition at 0.2 µM", "setting": "HIV-IIIb", "result": 99, "unit": "%"}, {"measurement": "inhibition at 2 µM", "setting": "HIV-IIIb", "result": 99, "unit": "%"}]}
{"smiles": "Cn1cc(-c2ccc(-c3ccc(Cl)c4c(NS(C)(=O)=O)nn(C)c34)c([C@H](Cc3cc(F)cc(F)c3)NC(=O)Cn3nc(C(F)(F)F)c4c3C(F)(F)[C@@H]3C[C@H]43)n2)cn1", "note": "[Compound 173, N—((S)-1-(3-(4-chloro-1-methyl-3-(methylsulfonamido)-1H-indazol-7-yl)-6-(1-methyl-1H-pyrazol-4-yl)pyridin-2-yl)-2-(3,5-difluorophenyl)ethyl)-2-((3bS,4aR)-5,5-difluoro-3-(trifluoromethyl)-3b,4,4a,5-tetrahydro-1H-cyclopropa[3,4]cyclopenta[1,2-c]pyrazol-1-yl)acetamide]", "values": [{"measurement": "CC50 at 5 days", "setting": "[1]", "result": "> 43.7", "unit": "µM"}, {"measurement": "inhibition at 0.2 µM", "setting": "HIV-IIIb", "result": 92, "unit": "%"}, {"measurement": "inhibition at 2 µM", "setting": "HIV-IIIb", "result": 92, "unit": "%"}]}
{"smiles": "CC(C)(O)C#Cc1ccc(-c2cccc3c(N)n[nH]c23)c([C@H](Cc2cc(F)cc(F)c2)NC(=O)Cn2nc(C(F)(F)F)c3c2C(F)(F)[C@@H]2C[C@H]32)n1", "note": "[Compound 29B, N—((S)-1-(3-(3-amino-1H-indazol-7-yl)-6-(3-hydroxy-3-methylbut-1-yn-1-yl)pyridin-2-yl)-2-(3,5-difluorophenyl)ethyl)-2-((3bS,4aR)-5,5-difluoro-3-(trifluoromethyl)-3b,4,4a,5-tetrahydro-1H-cyclopropa[3,4]cyclopenta[1,2-c]pyrazol-1-yl)acetamide]", "values": [{"measurement": "CC50 at 5 days", "setting": "[1]", "result": 15.3, "unit": "µM"}, {"measurement": "inhibition at 0.2 µM", "setting": "HIV-IIIb", "result": 80, "unit": "%"}, {"measurement": "inhibition at 2 µM", "setting": "HIV-IIIb", "result": 81, "unit": "%"}]}
{"smiles": "Cc1ccc(-c2ccc(C#CC(C)(C)O)nc2[C@H](Cc2cc(F)cc(F)c2)NC(=O)Cn2nc(C(F)F)c3c2C(F)(F)[C@@H]2C[C@H]32)c2c1c(NS(N)(=O)=O)nn2C", "note": "[Compound 71, 2-((3bS,4aR)-3-(difluoromethyl)-5,5-difluoro-3b,4,4a,5-tetrahydro-1H-cyclopropa[3,4]cyclopenta[1,2-c]pyrazol-1-yl)-N—((S)-2-(3,5-difluorophenyl)-1-(3-(1,4-dimethyl-3-(sulfamoylamino)-1H-indazol-7-yl)-6-(3-hydroxy-3-methylbut-1-yn-1-yl)pyridin-2-yl)ethyl)acetamide]", "values": [{"measurement": "CC50 at 5 days", "setting": "[1]", "result": 9.51, "unit": "µM"}, {"measurement": "inhibition at 0.2 µM", "setting": "HIV-IIIb", "result": 87, "unit": "%"}, {"measurement": "inhibition at 2 µM", "setting": "HIV-IIIb", "result": 87, "unit": "%"}]}
{"smiles": "Cn1nc(NS(C)(=O)=O)c2cccc(-c3ccc(C#C[C@@H](N)CO)nc3[C@H](Cc3cc(F)cc(F)c3)NC(=O)Cn3nc(C(F)(F)F)c4c3C(F)(F)[C@@H]3C[C@H]43)c21", "note": "[Compound 59B, N—((S)-1-(6-((R)-3-amino-4-hydroxybut-1-yn-1-yl)-3-(1-methyl-3-(methylsulfonamido)-1H-indazol-7-yl)pyridin-2-yl)-2-(3,5-difluorophenyl)ethyl)-2-((3bS,4aR)-5,5-difluoro-3-(trifluoromethyl)-3b,4,4a,5-tetrahydro-1H-cyclopropa[3,4]cyclopenta[1,2-c]pyrazol-1-yl)acetamide]", "values": [{"measurement": "CC50 at 5 days", "setting": "[1]", "result": 22.4, "unit": "µM"}, {"measurement": "inhibition at 0.2 µM", "setting": "HIV-IIIb", "result": 94, "unit": "%"}, {"measurement": "inhibition at 2 µM", "setting": "HIV-IIIb", "result": 94, "unit": "%"}]}
{"smiles": "Cn1nc(NS(C)(=O)=O)c2c(Cl)ccc(-c3ccc(-c4ccccn4)nc3[C@H](Cc3cc(F)cc(F)c3)NC(=O)Cn3nc(C(F)(F)F)c4c3C(F)(F)[C@@H]3C[C@H]43)c21", "note": "[Compound 172, N—((S)-1-(5-(4-chloro-1-methyl-3-(methylsulfonamido)-1H-indazol-7-yl)-[2,2′-bipyridin]-6-yl)-2-(3,5-difluorophenyl)ethyl)-2-((3bS,4aR)-5,5-difluoro-3-(trifluoromethyl)-3b,4,4a,5-tetrahydro-1H-cyclopropa[3,4]cyclopenta[1,2-c]pyrazol-1-yl)acetamide]", "values": [{"measurement": "CC50 at 5 days", "setting": "[1]", "result": 0.061, "unit": "µM"}]}
{"smiles": "COc1cc(-c2ccc(Cl)c3c(NS(C)(=O)=O)nn(C)c23)c([C@H](Cc2cc(F)cc(F)c2)NC(=O)Cn2nc(C(F)(F)F)c3c2C(F)(F)[C@@H]2C[C@H]32)nc1C#CC(C)(C)O", "note": "[Compound 135B, N—((S)-1-(3-(4-chloro-1-methyl-3-(methylsulfonamido)-1H-indazol-7-yl)-6-(3-hydroxy-3-methylbut-1-yn-1-yl)-5-methoxypyridin-2-yl)-2-(3,5-difluorophenyl)ethyl)-2-((3bS,4aR)-5,5-difluoro-3-(trifluoromethyl)-3b,4,4a,5-tetrahydro-1H-cyclopropa[3,4]cyclopenta[1,2-c]pyrazol-1-yl)acetamide]", "values": [{"measurement": "CC50 at 5 days", "setting": "[1]", "result": 14.2, "unit": "µM"}, {"measurement": "inhibition at 0.2 µM", "setting": "HIV-IIIb", "result": 93, "unit": "%"}, {"measurement": "inhibition at 2 µM", "setting": "HIV-IIIb", "result": 93, "unit": "%"}]}
{"smiles": "CC(C)(C)C#Cc1ccc(-c2cccn3c(NS(C)(=O)=O)nnc23)c([C@H](Cc2cc(F)cc(F)c2)NC(=O)Cn2nc(C(F)F)c3c2C(F)(F)[C@@H]2C[C@H]32)n1", "note": "[Compound 134, 2-((3bS,4aR)-3-(difluoromethyl)-5,5-difluoro-3b,4,4a,5-tetrahydro-1H-cyclopropa[3,4]cyclopenta[1,2-c]pyrazol-1-yl)-N—((S)-2-(3,5-difluorophenyl)-1-(6-(3,3-dimethylbut-1-yn-1-yl)-3-(3-(methylsulfonamido)-[1,2,4]triazolo[4,3-a]pyridin-8-yl)pyridin-2-yl)ethyl)acetamide]", "values": [{"measurement": "CC50 at 5 days", "setting": "[1]", "result": 28, "unit": "µM"}, {"measurement": "inhibition at 0.2 µM", "setting": "HIV-IIIb", "result": 82, "unit": "%"}, {"measurement": "inhibition at 2 µM", "setting": "HIV-IIIb", "result": 83, "unit": "%"}]}
{"smiles": "CC(C)(O)C#Cc1ccc(-c2ccc(Cl)n3c(N)nnc23)c([C@H](Cc2cc(F)cc(F)c2)NC(=O)Cn2nc(C(F)F)c3c2C(F)(F)[C@@H]2C[C@H]32)n1", "note": "[Compound 106E]", "values": [{"measurement": "CC50", "setting": "uninfected MT-4 cells", "result": 12.4, "unit": "µM"}, {"measurement": "% inhibition at 0.2 μM (percent inhibition of virus-induced cell killing)", "setting": "HIV-IIIb", "result": 95, "unit": "%"}, {"measurement": "% inhibition at 2 μM (percent inhibition of virus-induced cell killing)", "setting": "HIV-IIIb", "result": 96, "unit": "%"}]}
{"smiles": "CCNc1nn(C)c2c(-c3ccc(C#CC(C)(C)O)nc3[C@H](Cc3cc(F)cc(F)c3)NC(=O)Cn3nc(C(F)F)c4c3C(F)(F)[C@@H]3C[C@H]43)ccc(Cl)c12", "note": "[Compound 91E]", "values": [{"measurement": "CC50", "setting": "uninfected MT-4 cells", "result": 9.38, "unit": "µM"}, {"measurement": "% inhibition at 0.2 μM (percent inhibition of virus-induced cell killing)", "setting": "HIV-IIIb", "result": 100, "unit": "%"}, {"measurement": "% inhibition at 2 μM (percent inhibition of virus-induced cell killing)", "setting": "HIV-IIIb", "result": 100, "unit": "%"}]}
{"smiles": "CC(C)(O)C#Cc1ccc(-c2ccc(Cl)n3c(NS(C)(=O)=O)nnc23)c([C@H](Cc2cc(F)cc(F)c2)NC(=O)Cn2nc(C(F)F)c3c2C(F)(F)[C@@H]2C[C@H]32)n1", "note": "[Compound 110E]", "values": [{"measurement": "CC50", "setting": "uninfected MT-4 cells", "result": "> 53.2", "unit": "µM"}, {"measurement": "% inhibition at 0.2 μM (percent inhibition of virus-induced cell killing)", "setting": "HIV-IIIb", "result": 15, "unit": "%"}, {"measurement": "% inhibition at 2 μM (percent inhibition of virus-induced cell killing)", "setting": "HIV-IIIb", "result": 98, "unit": "%"}]}
